Assay results as given in patent US9028856B2, “Synergistic pesticide compositions” (priority 2008, dated 2015).

Assays:
[1] = tested on: Argentine ant, Linepithema humile; assay: Knockdown/mortality of ant workers under continuous exposure on treated glazed tile
How it was run: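 0.5% AI imidacloprid in acetone, alone or with 0.1, 1.0 or 5.0% additive (benzenepropanoic acid, oleic acid, methyl oleate, methyl linoleate, methyl palmitate or BHA), 1 ml dried overnight on glazed tile (~161 cm^2). Ten workers confined under continuous exposure, water from 3 h; knockdown/mortality scored at intervals and 24 h; ≥3 replicates.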

[2] = tested on: Odorous House ant, Tapinoma sessile; assay: as above; assay type: in vivo
Source text: Actual coverage was about 5″×5″ (or 161 cm2) for easy handling. Treatments were allowed to dry overnight. […] Treatments were replicated minimum three times.
(§1) Treatments were allowed to dry overnight. […] Treatments were replicated minimum three times.
(§2) Treatments were allowed to dry overnight. […] Treatments were replicated a minimum of three times.
Treatments were allowed to dry overnight. […] Treatments were replicated minimum of three times. […] The results are shown in FIG. 84 (No adjuvant alone treatment was performed).

[3] = tested on: Red Imported Fire ant (RIFA), Solenopsis invicta; assay: as above; assay type: in vivo
Source text: as §1, §2

[4] = tested on: susceptible/normal German cockroach (Monheim strain), Blattella germanica; assay: Knockdown/mortality of male cockroaches under continuous exposure on treated glazed tile; assay type: in vivo
Method: Treatments were allowed to dry overnight. […] Treatments were replicated a minimum of three times. […]
Treatments were allowed to dry overnight. […] Treatments were replicated a minimum of three times. Cockroach knockdown/mortality was evaluated at 5 minute intervals for the first 60 minutes after exposure and then at 2, 18 and 24 hours.

[5] = tested on: housefly, Musca domestica; assay: Housefly continuous exposure on treated glazed tile (paper cup arena); assay type: in vivo; details: Table 58, housefly, glazed tile, continuous exposure
Source text: Treatments were allowed to dry overnight. The housefly testing arena consisted of a 16 oz. paper cup where the bottom of the cup was removed and replaced with a piece of standard window screen. Ten adult houseflies (mixed ratio) were placed in each cup and covered with a 4″×5″ index card to prevent escape. Houseflies were continuously exposed to the treatment by inverting the testing arena and sliding the cup from the index card to the treated tile surface. Treatments were replicated a minimum of three times.

[6] = assay type: physicochemical; details: classified from Log P
[7] = tested on: Culex quinquefasciatus mosquito; assay: USDA Petri Dish Method, 3 min exposure to treated glazed tile (twenty 4-6 day old females); assay type: in vivo; details: fipronil 0.01% AI with or without adjuvant
Method: MATERIALS AND METHODS: Solutions of resmethrin at 1 and 0.5% AI were prepared with and without adjuvant in acetone. […] USDA Petri Dish Method was used as initial screening protocol. Twenty, 4-6 day old female Culex quinquefasciatus mosquitoes were exposed to each treatment for 3 minutes and then moved to a clean untreated white paper index card. Treatments were replicated a minimum of three times. Mosquito knockdown was evaluated at 3 minute intervals for the first 15 minutes and then at 5 minute intervals for the remainder of an hour. A small cotton ball soaked in sucrose solution was added on the screen top of the petri-dish as a drinking source after the 2 hour evaluation. Mortality was evaluated at 24 hours after exposure.
(§3) Treatments were allowed to dry overnight. USDA Petri Dish Method was used as initial screening protocol. Twenty, 4-6 day old female Culex mosquitoes were exposed to each treatment for 3 minutes and then moved to a clean untreated white paper index card. Treatments were replicated a minimum of three times. Mosquito knockdown was evaluated at various intervals through 3 hours after exposure. A small cotton ball soaked in sucrose solution was added on the screen top of the petri-dish as a drinking source. Mortality was evaluated at 24 hours after exposure.
as §3, with “female Culex quinquefasciatus mosquitoes were” for “female Culex mosquitoes were”, “intervals through 2 hours after” for “intervals through 3 hours after”, “solution was then added on” for “solution was added on”
as §3, with “Culex quinquefasciatus” for “Culex”, “hourly intervals.” for “intervals through 3 hours after exposure.”, “source after 2 hours.” for “source.”

[8] = octanol-water partition coefficient (Log K ow), Table 1; cited from earlier work
[9] = tested on: Musca domestica, susceptible strain WHO(N); assay: Topical insecticide application to houseflies; assay type: in vivo; details: 0.5 μl per fly, % a.i. conc. in acetone, Table 95
Method: Male Musca domestica, susceptible strain WHO(N), or other strains were used.
The flies were anaesthetized with CO2, and ten individuals were positioned (on their back) on a filter paper which was on the top of a carbon dioxide emitting device. […]
Afterwards the insects were transferred into a beaker closed by a gauze lid with a water saturated cotton pad on the top.
At regular intervals, mortality was recorded (cumulatively).

[10] = tested on: Musca domestica, susceptible strain WHO(N); assay: Contact efficacy against houseflies on filter papers in glass dishes; assay type: in vivo; details: % a.i. conc. in acetone on filter papers, Table 97
Method: Male Musca domestica, susceptible strain WHO(N), were used.
A solution of the active ingredient in acetone was prepared. A concentration row was made. After evaporation of the acetone (30′), the dishes were closed by a glass lid and transferred into the test room. One day later twenty flies, anaesthetized with CO2, are counted into each dish. At regular intervals, knock down was recorded (cumulatively). Each test consisted of one replicate. […]

[11] = Table 54, Trial 1, glazed tile, continuous exposure
[12] = Table 55, Trial 2, glazed tile, continuous exposure
[13] = Table 57, Argentine ant, glazed tile, continuous exposure

## CC[S+]([O-])c1c(C#N)nn(-c2c(Cl)cc(C(F)(F)F)cc2Cl)c1N (centres unmarked) [Ethiprole (0.01%)]
[1]; Table 54, Trial 1, acetone solution on glazed tile, continuous exposure
  Average % Mortality after 10 min: 0%
[1]; [11]
  Average % Mortality after 30 min: 0%
  Average % Mortality after 60 min: 0%
  Average % Mortality after 90 min: 0%
  Average % Mortality after 2 hr: 0%
  Average % Mortality after 24 hr: 100%
[1]; Table 54, Trial 1, glazed tile, continuous exposure, 4 hr
  Average % Mortality after 4 hr: 16%
[1]; [12]
  Average % Mortality after 10 min: 0%
  Average % Mortality after 30 min: 0%
  Average % Mortality after 60 min: 0%
  Average % Mortality after 90 min: 0%
  Average % Mortality after 2 hr: 0%
  Average % Mortality after 24 hr: 72%
[1]; Table 55, Trial 2, glazed tile, continuous exposure, 3 hr
  Average % Mortality after 3 hr: 6%
[1]; [13]
  Average % Mortality after 30 min: 0%
  Average % Mortality after 60 min: 0%
[1]; Table 57, Argentine ant, glazed tile, continuous exposure, 45 min
  Average % Mortality after 45 min: 0%
[1]; Table 57, Argentine ant, glazed tile, continuous exposure, adjuvant = Compound A 1% + Compound B 0.5%, 15 min
  Average % Mortality after 15 min: 0%
[2]; Table 59, Odorous House ant, glazed tile, continuous exposure, 30 min
  Average % Knockdown & Mortality after 30 min: 0%
[2]; Table 59, Odorous House ant, glazed tile, continuous exposure, 45 min
  Average % Knockdown & Mortality after 45 min: 0%
[2]; Table 59, Odorous House ant, glazed tile, continuous exposure, 60 min
  Average % Knockdown & Mortality after 60 min: 0%
[2]; Table 59, Odorous House ant, glazed tile, continuous exposure, 2 hr
  Average % Knockdown & Mortality after 2 hr: 3%
[2]; Table 59, Odorous House ant, glazed tile, continuous exposure, adjuvant = Compound A 1% + Compound B 0.5%, 15 min
  Average % Knockdown & Mortality after 15 min: 0%
[3]; Table 60, Red Imported Fire ant, glazed tile, continuous exposure, 1 hr
  Average % Mortality after 1 hr: 0%
[3]; Table 60, Red Imported Fire ant, glazed tile, continuous exposure, 1.5 hr
  Average % Mortality after 1.5 hr: 0%
[3]; Table 60, Red Imported Fire ant, glazed tile, continuous exposure, 2 hr
  Average % Mortality after 2 hr: 0%
[3]; Table 60, Red Imported Fire ant, glazed tile, continuous exposure, 3 hr
  Average % Mortality after 3 hr: 3%
[3]; Table 60, Red Imported Fire ant, glazed tile, continuous exposure, adjuvant = Compound A 1% + Compound B 0.5%, 30 min
  Average % Mortality after 30 min: 0%
[4]; Table 61, German cockroach (Monheim), glazed tile, continuous exposure, 3 hr
  Average % Knockdown & Mortality after 3 hr: 0%
[4]; Table 61, German cockroach (Monheim), glazed tile, continuous exposure, 5 hr
  Average % Knockdown & Mortality after 5 hr: 7%
[4]; Table 61, German cockroach (Monheim), glazed tile, continuous exposure, 24 hr
  Average % Knockdown & Mortality after 24 hr: 13%
[4]; Table 61, German cockroach (Monheim), glazed tile, continuous exposure, adjuvant = Compound A 1% + Compound B 0.5%, 1 hr
  Average % Knockdown & Mortality after 1 hr: 0%
[5]; 3 hr
  Average % Knockdown & Mortality after 3 hr: 0%
[5]; 5 hr
  Average % Knockdown & Mortality after 5 hr: 0%
[5]; 7 hr
  Average % Knockdown & Mortality after 7 hr: 3%
[5]; 24 hr
  Average % Knockdown & Mortality after 24 hr: 100%
[5]; adjuvant = Compound A 1% + Compound B 0.5%, 1 hr
  Average % Knockdown & Mortality after 1 hr: 0%

## N#Cc1nn(-c2c(Cl)cc(C(F)(F)F)cc2Cl)c(N)c1[S+]([O-])C(F)(F)F (single isomer, unassigned) [fipronil, reference compound]
[6]
  Likelihood of Direct Insect Cuticular Penetration: Fast (classified as “FAST” when it has a Log P value of about >4.0)
[1]; fipronil 0.001% with or without adjuvant (FIG. 43)
  time at which 100% mortality was seen: around 25 hours
[7]
  mortality at 24 hours (FIG. 44): around 50%
[2]; fipronil 0.001% (FIG. 45), ethiprole 0.01% (FIG. 53), with or without adjuvant
  time at which 100% mortality was observed: 25 h
[3]; fipronil 0.01% AI with or without adjuvant
  time to a relatively high percentage of mortality (around 80%): around 20 hours
[4]; fipronil 0.001% (FIG. 48), ethiprole 0.01% (FIG. 55), with or without adjuvant
  mortality at 25 hours: around 40%
[8]
  Log P: 4.0

## CC1(C)[C@H](C(=O)O[C@H](C#N)c2cccc(Oc3ccccc3)c2)[C@@H]1C=C(Br)Br [0.00064% DTM]
[9]; 15′
  % Mortality after: 100%
[9]; 30′
  % Mortality after: 100%
[9]; 1 h
  % Mortality after: 100%
[9]; 2 h
  % Mortality after: 100%
[9]; 4 h
  % Mortality after: 100%
[9]; 1 d
  % Mortality after: 80%

## Cc1ccc(O)c(-n2nc3ccccc3n2)c1 [0.5% Compound B]
[9]; 15′
  % Mortality after: 0%
[9]; 30′
  % Mortality after: 0%
[9]; 1 h
  % Mortality after: 0%
[9]; 2 h
  % Mortality after: 0%
[9]; 4 h
  % Mortality after: 0%
[9]; 1 d
  % Mortality after: 60%
[10]; 15′
  % knock down after: 0%
[10]; 30′
  % knock down after: 0%
[10]; 1 h
  % knock down after: 0%
[10]; 1.5 h
  % knock down after: 0%
[10]; 2 h
  % knock down after: 0%
[10]; 3 h
  % knock down after: 0%
[10]; 4 h
  % knock down after: 0%
[10]; 6 h
  % knock down after: 0%
[10]; 1 d
  % knock down after: 70%

## CC1(C)C(C=C(Br)Br)C1C(=O)OC(C#N)c1cccc(Oc2ccccc2)c1 (centres unmarked) [0.000128% DTM]
[9]; 15′
  % Mortality after: 20%
[9]; 30′
  % Mortality after: 50%
[9]; 1 h
  % Mortality after: 70%
[9]; 2 h
  % Mortality after: 70%
[9]; 4 h
  % Mortality after: 80%
[9]; 1 d
  % Mortality after: 50%

## CC1(C)[C@H](C(=O)O[C@H](C#N)c2cccc(Oc3ccccc3)c2)[C@@H]1C=C(Br)Br [0.0000256% DTM]
[9]; 15′
  % Mortality after: 10%
[9]; 30′
  % Mortality after: 20%
[9]; 1 h
  % Mortality after: 30%
[9]; 2 h
  % Mortality after: 20%
[9]; 4 h
  % Mortality after: 20%
[9]; 1 d
  % Mortality after: 60%
